Like-named read-outs stand apart in the source and are kept apart here.
Columns and labels:
Format in all cases: cell-based, human
U-87 = test: SRB cytotoxicity assay, U-87 (2nd panel); settings: for IC50: Homo sapiens, U-87 MG, ± SD, SRB, 72 h; for selectivity index SIHDF (U-87): IC50 normal cell line HDF/IC50 U-87
Procedure: U-87MG cells (glioblastoma cell line) were cultured in Eagle’s Minimal Essential Medium. Human Dermal Fibroblasts cell line (HDF) was cultured in Fibroblast Basal Medium.
(§1) Each medium was supplemented with 10% fetal bovine serum, 1% L-glutamine, and 1% penicillin/streptomycin solution. The cell lines were kept in the incubator at 37◦C. The optimal plating density of cell lines was determined to be 5 × 104. All the cell lines and mediums were obtained from American Type Culture Collection (ATCC) supplied by LGC-Standards. The protein-staining SRB (Sigma-Aldrich) microculture colorimetric assay, developed by the National Cancer Institute (USA) for in vitro antitumor screening was used in this study, to estimate the cell number by providing a sensitive index of total cellular protein content, being linear to cell density. The monolayer cell culture was trypsinized and the cell count was adjusted to 5 × 10^4 cells. To each well of the 96 well microtiter plate, 0.1 mL of the diluted cell suspension (approximately […]) was added. After 24 hours, when a partial monolayer was formed, the supernatant was washed out and 100 μL of six different compound concentrations (0.1, 0.2, 1, 2, 10, and 20 μM) were added to the cells in microtitre plates. The tested compounds were dissolved in DMSO (containing 10 % of water) (100 μL) and the […]
(§2) lines. The cells were exposed to compounds for 72 hours at 37 °C in a humidified atmosphere (90% RH) containing 5% CO2. After that, 25 μL of 50 % trichloroacetic acid was added to the wells and the plates were incubated for 1 hour at 4◦C. The plates were then washed out with the distilled water to remove traces of medium and next dried by the air. The air-dried plates were stained with 100 μL of 0.4% sulforhodamine B (prepared in 1 % acetic acid) and kept for 30 minutes at room temperature. The unbound dye was removed by rapidly washing with 1% […]
(§3) acetic acid and then air dried overnight. The protein-bound dye was dissolved in 100 μL of 10 mM unbuffered Tris base (pH 10.5) for optical density determination at 490 nm. All cytotoxicity experiments were performed three times. Cell survival was measured as the percentage absorbance compared to the control (nontreated cells). Cytarabine (ara-C) and GDM were used as the internal standards. Additionally biological assays were performed in Human Dermal Fibroblasts cell line (HDF) in aim to evaluate cytotoxicity of GDM and its 1-13 analogs in healthy cells. SI indexes were calculated from equation SI = IC50 normal cell line HDF/IC50 respective cancerous cell line (Table 2). A beneficial SI > 1.0 indicates a compound with efficacy against tumor cell greater than the toxicity against normal cells. […]

SKOV-3 = test: SRB cytotoxicity assay, SKOV-3 (2nd panel); settings: for IC50: Homo sapiens, SK-OV-3, ± SD, SRB, 72 h, mixtures equimolar 1:1; for selectivity index SIHDF (SKOV-3): IC50 normal cell line HDF/IC50 SKOV-3
Procedure: Human cancer cells SKBR-3 (human breast cancer cell line) and SKOV-3 (ovarian cancer cell line) were cultured in McCoy’s Modified Medium. […]
Medium. Human Dermal Fibroblasts cell line (HDF) was cultured in Fibroblast Basal Medium.
as §1, §2, §3

MCF-7 = test: MTT cytotoxicity assay, MCF-7 (1st panel); settings: for IC50: ± SD, MTT, 72 h; for selectivity index SI (MCF-7): IC50 normal cell line CCD39Lu/IC50 MCF-7
Procedure: Cell survival was measured as the percentage absorbance compared to the control (nontreated cells). […]
SI indexes were calculated from equation SI = IC50 normal cell line HDF/IC50 respective cancerous cell line (Table 2). A beneficial SI > 1.0 indicates a compound with efficacy against tumor cell greater than the toxicity against normal cells.
(§4) All experiments were carried out with human breast adenocarcinoma (MDA-MB-231 and MCF-7), hepatocellular carcinoma (HepG2), human cervical adenocarcinoma (HeLa) cancer cell lines, and human normal lung fibroblast (CCD39Lu) cell line. The cell line was purchased from the European Collection of Cells Cultures (ECACC, Salisbury, UK), and cultured in DMEM with phenol red supplemented with 10% (v/v) FBS, 1% (v/v) penicillin/streptomycin, and 1% (v/v) L-glutamine at 37 °C, in a humidified atmosphere containing 5% CO2.
(§5) The tested compounds were dissolved in DMSO to the final concentration 10 mM and stored […]
(§6) The cytotoxic effect of the tested compounds was determined by MTT assay. MDA-MB-231, MCF-7, HepG2, HeLa, and CCD39Lu cells were seeded in 96 wells plates at density 2x10^4 cells/well and incubated overnight under cell culture condition. Next, cells were treated with tested compounds at concentrations of 10 µM; 5 µM; 2.5 µM; 1.2 µM; 0.6 µM; 0.3 µM; 0.15 […]
µM. Moreover, GDM (for MCF-7) and 8 (for MCF-7 and MDA-MB-231) due to high cytotoxicity, were additionally tested at a lower concentration range of 2.5 µM; 1.2 µM; 0.6 µM; 0.3 µM; 0.15µM; 0.07 µM; 0.03 µM. DMSO was used as a control, and the concentration […]
Tested compounds were added to cells in the medium without phenol red. Cells were incubated 72 h at 37 °C in a humidified atmosphere containing 5% CO2.
Then, the medium was aspirated and MTT solution at a concentration of 0.59 mg/mL in cell culture medium was added to each well. Plates were incubated for 1.5 hours at 37 °C, and then plates were centrifuged for 3 minutes. The formazan crystals were dissolved in 200 µl DMSO and plates were agitated on a plate shaker at 300 –500 rpm for 10 minutes. Absorbance at 570 nm was measured using a plate reader (Biotek Instruments, Elx -800). Data were normalized to the mean absorption of control cells. All experiments were performed at least three times. […]

cancer cell lines = test: Cytotoxicity, values summarised over several cancer cell lines
Procedure: Human cancer cells SKBR-3 (human breast cancer cell line) and SKOV-3 (ovarian cancer cell line) were cultured in McCoy’s Modified Medium. Human cancer cells PC-3 (human prostate cancer cell line) were cultured in F-12K medium, as well as A549 cell line (lung cancer cell line). U-87MG cells (glioblastoma cell line) were cultured in Eagle’s Minimal Essential Medium. Human Dermal Fibroblasts cell line (HDF) was cultured in Fibroblast Basal Medium.
as §1, §2
acetic acid and then air dried overnight. The protein-bound dye was dissolved in 100 μL of 10 mM unbuffered Tris base (pH 10.5) for optical density determination at 490 nm. All cytotoxicity experiments were performed three times. Cell survival was measured as the percentage absorbance compared to the control (nontreated cells). Cytarabine (ara-C) and GDM were used as the internal standards. Additionally biological assays were performed in Human Dermal Fibroblasts cell line (HDF) in aim to evaluate cytotoxicity of GDM and its 1-13 analogs in healthy cells. SI indexes were calculated from equation SI = IC50 normal cell line HDF/IC50 respective cancerous cell line (Table 2). A beneficial SI > 1.0 indicates a compound with efficacy against tumor cell greater than the toxicity against normal cells.
as §4, §5, §6

[1] = Homo sapiens, SKBR-3, SKOV-3, PC-3, U-87 and A-549, approximate level or span, read-out: IC50 in 2nd panel of cancer cell lines

Row | Compound | IC50 (U-87) | selectivity index SIHDF (U-87) (U-87) | IC50 (SKOV-3) | selectivity index SIHDF (SKOV-3) (SKOV-3) | IC50 (MCF-7; Homo sapiens, MCF7, 72 h) | selectivity index SI (MCF-7) (MCF-7) | IC50 (MCF-7) | IC50 (cancer cell lines; [1]) | IC50 (cancer cell lines; Homo sapiens, MDA-MB-231, MCF-7, HeLa and HepG2, read-out: IC50s in 1st panel of cancer cell lines) | IC50 (cancer cell lines; Homo sapiens, span over the four cell lines, read-out: IC50s in MCF-7, MDA-MB-231, A549 and HeLa) | SI indexes (1st panel, text summary) (cancer cell lines; vs CCD39Lu, Table 1) | IC50 (cancer cell lines; SKBR-3, SKOV-3, PC-3, U-87 and A-549, approximate level or span, read-out: IC50 in 2nd panel of cancer cell lines) | IC50 (cancer cell lines; Homo sapiens, approximate level over the three cancer cell lines, mixtures equimolar 1:1, read-out: IC50 in SKBR-3, SKOV-3 and PC-3)
1 | CO[C@H]1/C=C\C=C(/C)C(=O)NC2=CC(=O)C(NC3CCC3)=C(C[C@@H](C)C[C@H](OC)[C@H](O)[C@@H](C)/C=C(\C)[C@@H]1OC(N)=O)C2=O [Compound 1] | 7.32 ± 0.49 µM | 4.10 | 8.04 ± 0.24 µM | 3.73 | ~0.1 µM | > 76.92 | 0.13 ± 0.01 µM | ~7.5 µM | – | – | – | – | –
2 | CO[C@H]1/C=C\C=C(/C)C(=O)NC2=CC(=O)C(NC3CN4CCC3CC4)=C(C[C@@H](C)C[C@H](OC)[C@H](O)[C@@H](C)/C=C(\C)[C@@H]1OC(N)=O)C2=O (stereo partly shown) [Compound 8] | 1.08 ± 0.16 µM | – | 1.16 ± 0.92 µM | 2.78 | ~0.1 µM | 9.67 | 0.09 ± 0.01 µM | – | 0.1 to 1 µM | 0.09 to 1.06 µM | < 1 | – | –
3 | C=CC[N+]12CCC(CC1)C(NC1=C3C[C@@H](C)C[C@H](OC)[C@H](O)[C@@H](C)/C=C(\C)[C@H](OC(N)=O)[C@@H](OC)/C=C\C=C(/C)C(=O)NC(=CC1=O)C3=O)C2 (stereo partly shown) [Compound 9] | 3.69 ± 0.08 µM | 1.43 | 3.86 ± 0.05 µM | 1.37 | 2.34 ± 0.56 µM | > 4.27 | – | 2 to 3 µM | – | – | – | – | –
4 | C/C=C/C[N+]12CCC(CC1)C(NC1=C3C[C@@H](C)C[C@H](OC)[C@H](O)[C@@H](C)/C=C(\C)[C@H](OC(N)=O)[C@@H](OC)/C=C\C=C(/C)C(=O)NC(=CC1=O)C3=O)C2 (stereo partly shown) [Compound 10] | 1.84 ± 0.11 µM | 1.61 | 1.61 ± 0.13 µM | 1.84 | 2.51 ± 1.03 µM | > 3.98 | – | ~1.7 µM | – | – | – | 1.29 to 1.94 µM | –
5 | CO[C@H]1/C=C\C=C(/C)C(=O)NC2=CC(=O)C(NC3C[N+]4(C/C=C/c5ccccc5)CCC3CC4)=C(C[C@@H](C)C[C@H](OC)[C@H](O)[C@@H](C)/C=C(\C)[C@@H]1OC(N)=O)C2=O (stereo partly shown) [Compound 13] | 2.26 ± 0.15 µM | 1.67 | 2.17 ± 0.06 µM | 1.76 | 2.31 ± 0.97 µM | > 4.33 | – | 2 to 3 µM | – | – | – | – | ~2 µM
